Where “and” joins values, the source holds several entries; their conditions need not be identical. Identical values can stand only once. Inconclusive results and toxic doses are left out.
Tested on: CD2F1 mice, L1210 leukemia ip, survival T/C
Assay: NCI In Vivo Anticancer Drug Screen. Data for tumor model L1210 Leukemia (intraperitoneal) in CD2F1 (CDF1) mice
Conditions: endpoint: mean survival time, higher = longer survival
How it was run: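 Mice carrying a transplanted tumor received test compound or vehicle alone. The value is the measurement in the treated group divided by that in the vehicle-treated control group.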

[1] = dose: 100.0 mg/kg/injection, schedule: Q04DX003 (ip), vehicle: saline with Tween-80
[2] = dose: 200.0 mg/kg/injection, schedule: Q04DX003 (ip), vehicle: saline with Tween-80
[3] = dose: 400.0 mg/kg/injection, schedule: Q04DX003 (ip), vehicle: saline with Tween-80
[4] = dose: 75.0 mg/kg/injection, schedule: Q01DX001 (ip), vehicle: saline
[5] = dose: 150.0 mg/kg/injection, schedule: Q01DX001 (ip), vehicle: saline
[6] = dose: 10.0 mg/kg/injection, schedule: Q01DX009 (ip), vehicle: saline with Tween-80
[7] = dose: 100.0 mg/kg/injection, schedule: Q04DX002 (ip), vehicle: saline with Tween-80
[8] = dose: 200.0 mg/kg/injection, schedule: Q04DX002 (ip), vehicle: saline with Tween-80
[9] = dose: 400.0 mg/kg/injection, schedule: Q04DX002 (ip), vehicle: saline with Tween-80
[10] = dose: 50.0 mg/kg/injection, schedule: Q04DX002 (ip), vehicle: saline with Tween-80
[11] = dose: 100.0 mg/kg/injection, schedule: Q01DX001 (ip), vehicle: saline with Tween-80
[12] = dose: 12.5 mg/kg/injection, schedule: Q01DX009 (ip), vehicle: saline
[13] = dose: 25.0 mg/kg/injection, schedule: Q01DX009 (ip), vehicle: saline
[14] = dose: 100.0 mg/kg/injection, schedule: Q01DX009 (ip), vehicle: saline with Tween-80
[15] = dose: 200.0 mg/kg/injection, schedule: Q01DX009 (ip), vehicle: saline with Tween-80
[16] = dose: 100.0 mg/kg/injection, schedule: Q04DX003 (ip), vehicle: saline
[17] = dose: 200.0 mg/kg/injection, schedule: Q04DX003 (ip), vehicle: saline

Cc1[nH]nc2c1CCCC2
T/C (dose: 100.0 mg/kg/injection, schedule: Q01DX009 (ip), vehicle: other): 101 % of control
T/C (dose: 200.0 mg/kg/injection, schedule: Q01DX009 (ip), vehicle: other): 97 % of control

CCCCC(CC)(CO)C(=O)NN (stereo unspecified)
T/C [1]: 97 % of control
T/C [2]: 100 % of control
T/C [3]: 97 % of control

O=S(=O)(C(Br)CBr)C(Br)CBr (stereo unspecified)
T/C [1]: 95 % of control

CCCCCCCCCCCCNCCC(=O)O
T/C [4]: 93 % of control
T/C [5]: 93 % of control

Cc1cc([NH-])c([NH-])cc1C.[Cl][Pt+2][Cl]
T/C (dose: 2.5 mg/kg/injection, schedule: Q01DX009 (ip), vehicle: saline with Tween-80): 120 % of control and 123 % of control
T/C [6]: 150 % of control and 168 % of control
T/C (dose: 10.0 mg/kg/injection, schedule: Q04DX003 (ip), vehicle: water): 121 % of control
T/C (dose: 16.0 mg/kg/injection, schedule: Q04DX003 (ip), vehicle: water): 116 % of control
T/C (dose: 24.0 mg/kg/injection, schedule: Q04DX003 (ip), vehicle: water): 112 % of control

COc1ccc(NC(=O)Oc2cccc(C)c2)cc1
T/C [7]: 90 % of control
T/C [8]: 97 % of control
T/C [9]: 93 % of control

CCOc1ccc(OCC)c(NC(=O)Nc2ccccc2C)c1
T/C (dose: 25.0 mg/kg/injection, schedule: Q04DX002 (ip), vehicle: saline with Tween-80): 88 % of control
T/C [10]: 88 % of control
T/C [7]: 90 % of control
T/C [9]: 90 % of control

CC1CC(C)(C)[N+](C)=C(CCc2ccccc2)O1 (stereo unspecified)
T/C [11]: 93 % of control

O=S(=O)(N1CCCCC1)N1CCNCC1
T/C (dose: 5.0 mg/kg/injection, schedule: Q01DX009 (ip), vehicle: saline with Tween-80): 98 % of control
T/C (dose: 5.0 mg/kg/injection, schedule: Q04DX003 (ip), vehicle: saline with Tween-80): 103 % of control
T/C [6]: 98 % of control
T/C (dose: 10.0 mg/kg/injection, schedule: Q04DX003 (ip), vehicle: saline with Tween-80): 103 % of control
T/C (dose: 20.0 mg/kg/injection, schedule: Q01DX009 (ip), vehicle: saline with Tween-80): 96 % of control
T/C (dose: 20.0 mg/kg/injection, schedule: Q04DX003 (ip), vehicle: saline with Tween-80): 97 % of control

O=C(NC1CCCCC1)NC1CCCCC1
T/C [1]: 100 % of control
T/C [2]: 98 % of control
T/C [3]: 93 % of control

CN(C)c1nnc(N(C)C)s1
T/C [1]: 100 % of control
T/C [2]: 98 % of control
T/C [3]: 98 % of control

C=CCc1cn(C2CC(O)C(CO)O2)c(=O)[nH]c1=O (stereo unspecified)
T/C [12]: 94 % of control and 104 % of control
T/C [13]: 101 % of control and 107 % of control
T/C (dose: 50.0 mg/kg/injection, schedule: Q01DX009 (ip), vehicle: saline): 95 % of control and 108 % of control
T/C (dose: 100.0 mg/kg/injection, schedule: Q01DX009 (ip), vehicle: saline): 103 % of control and 110 % of control
T/C (dose: 200.0 mg/kg/injection, schedule: Q01DX009 (ip), vehicle: saline): 104 % of control and 106 % of control
T/C (dose: 400.0 mg/kg/injection, schedule: Q01DX009 (ip), vehicle: saline): 118 % of control and 111 % of control (2×)

CO[C@@]12[C@@H]3N[C@@H]3CN1C1=C(C(=O)C(NCCN(C)C)=C(C)C1=O)[C@@H]2COC(N)=O
T/C (dose: 1.5 mg/kg/injection, schedule: Q01DX001 (ip), vehicle: water): 106 % of control
T/C (dose: 3.0 mg/kg/injection, schedule: Q01DX001 (ip), vehicle: distilled water + Tween-80): 116 % of control
T/C (dose: 3.0 mg/kg/injection, schedule: Q01DX001 (ip), vehicle: water): 106 % of control
T/C (dose: 6.0 mg/kg/injection, schedule: Q01DX001 (ip), vehicle: water): 116 % of control
T/C (dose: 24.0 mg/kg/injection, schedule: Q01DX001 (ip), vehicle: distilled water + Tween-80): 96 % of control
T/C (dose: 24.0 mg/kg/injection, schedule: Q01DX001 (ip), vehicle: water): 93 % of control

COc1cc(C)ccc1Cl
T/C [14]: 101 % of control
T/C [15]: 118 % of control

CC(C)(O)CCNc1ncnc2c1ncn2C1OC(CO)C(O)C1O (stereo unspecified)
T/C (dose: 12.5 mg/kg/injection, schedule: Q01DX005 (ip), vehicle: water): 101 % of control
T/C (dose: 25.0 mg/kg/injection, schedule: Q01DX005 (ip), vehicle: water): 95 % of control and 103 % of control
T/C (dose: 50.0 mg/kg/injection, schedule: Q01DX005 (ip), vehicle: water): 124 % of control and 103 % of control
T/C (dose: 100.0 mg/kg/injection, schedule: Q01DX005 (ip), vehicle: water): 108 % of control

CCCCCCCCCCCCCCCCOC(=O)Nc1ccc(S(=O)(=O)N(CCC)CCC)cc1
T/C (dose: 100.0 mg/kg/injection, schedule: Q01DX001 (ip), vehicle: saline): 94 % of control
T/C (dose: 200.0 mg/kg/injection, schedule: Q01DX001 (ip), vehicle: saline): 96 % of control
T/C (dose: 400.0 mg/kg/injection, schedule: Q01DX001 (ip), vehicle: saline): 92 % of control

COc1cc(Cl)ccc1NC(=O)OCCOc1ccc(C(C)(C)C)cc1
T/C (dose: 50.0 mg/kg/injection, schedule: Q01DX009 (ip), vehicle: saline with Tween-80): 103 % of control
T/C [14]: 95 % of control
T/C [15]: 95 % of control

CC(C)C1C=C2CCC3C(C)(C(=O)O)CCCC3(C)C2CC1 (stereo unspecified)
T/C [11]: 96 % of control
T/C (dose: 200.0 mg/kg/injection, schedule: Q01DX001 (ip), vehicle: saline with Tween-80): 94 % of control
T/C (dose: 400.0 mg/kg/injection, schedule: Q01DX001 (ip), vehicle: saline with Tween-80): 92 % of control

COc1cc(C2=N/C(=C\c3cc(Br)ccc3O)C(=O)O2)cc(OC)c1OC
T/C [10]: 88 % of control
T/C [7]: 95 % of control and 100 % of control
T/C [8]: 96 % of control
T/C [9]: 88 % of control and 100 % of control

CCS(=O)(=O)Nc1ccc(Nc2c3ccccc3nc3ccccc23)c(OC)c1
T/C (dose: 5.0 mg/kg/injection, schedule: Q01DX009 (ip), vehicle: saline): 156 % of control

Cc1ccc(Oc2ccc([N+](=O)[O-])cc2)cc1
T/C (dose: 50.0 mg/kg/injection, schedule: Q04DX003 (ip), vehicle: saline): 101 % of control
T/C [16]: 100 % of control
T/C [17]: 94 % of control

COc1ccc(C(=O)CCC(=O)O)c(C)c1
T/C [16]: 96 % of control
T/C [17]: 94 % of control
T/C (dose: 400.0 mg/kg/injection, schedule: Q04DX003 (ip), vehicle: saline): 92 % of control

C=CCC(C)(C)/C=N/N
T/C (dose: 37.5 mg/kg/injection, schedule: Q01DX009 (ip), vehicle: saline): 101 % of control
T/C [4]: 95 % of control
T/C (dose: 75.0 mg/kg/injection, schedule: Q01DX009 (ip), vehicle: saline): 100 % of control
T/C [5]: 98 % of control
T/C (dose: 150.0 mg/kg/injection, schedule: Q01DX009 (ip), vehicle: saline): 107 % of control

CCOC(=O)c1cc(OC(C)=O)c2c(ccc3ccccc32)c1C
T/C (dose: 100.0 mg/kg/injection, schedule: Q04DX003 (ip), vehicle: Klucel (hydroxypropylcellulose) (HPC)): 101 % of control
T/C (dose: 200.0 mg/kg/injection, schedule: Q04DX003 (ip), vehicle: Klucel (hydroxypropylcellulose) (HPC)): 104 % of control
T/C (dose: 400.0 mg/kg/injection, schedule: Q04DX003 (ip), vehicle: Klucel (hydroxypropylcellulose) (HPC)): 97 % of control

Clc1nc(Cl)nc(-c2cccn2-c2ccccc2)n1
T/C [14]: 93 % of control
T/C [1]: 102 % of control
T/C [2]: 108 % of control
T/C [3]: 115 % of control

CCNc1ncnc2c1c(C(N)=S)cn2C1OC(CO)C(O)C1O (stereo unspecified)
T/C (dose: 6.25 mg/kg/injection, schedule: Q01DX009 (ip), vehicle: saline): 116 % of control
T/C [12]: 116 % of control
T/C [13]: 150 % of control

Reference: PubChem BioAssay AID256 (DTP/NCI, 2004)
